PubChem BioAssay AID1745844 (Carcinogenic Potency Database (CPDB), 2022)
Calls of active or inactive are those of the source. No rule for the calls is given here.

System: rodent lifetime carcinogenesis bioassay, tumor incidence TD50
Assay: carcinogenic potency in animals, long-term in vivo studies, CPDB compilation (AID 1745844)

Work on `CCN(N=O)C(=O)NCC(C)=O` yielded a TD50 (hamster, strain Syrian Golden, females, by gavage, site: forestomach, lesion: carcinoma, dosed 30 weeks, study length 85 weeks) of 2.19 mg/kg/day, a TD50 (hamster, strain Syrian Golden, females, by gavage, site: forestomach, lesion: several types, types named in the paper, dosed 30 weeks, study length 85 weeks) of 0.983 mg/kg/day and a TD50 (hamster, strain Syrian Golden, females, by gavage, site: spleen, lesion: all vascular tumors, dosed 30 weeks, study length 85 weeks) of 0.394 mg/kg/day. The TD50 (hamster, strain Syrian Golden, males, by gavage, site: forestomach, lesion: carcinoma, dosed 30 weeks, study length 85 weeks) was 1.92 mg/kg/day, the TD50 (hamster, strain Syrian Golden, males, by gavage, site: forestomach, lesion: several types, types named in the paper, dosed 30 weeks, study length 85 weeks) was 0.506 mg/kg/day and the TD50 (hamster, strain Syrian Golden, males, by gavage, site: liver, lesion: cholangioma, dosed 30 weeks, study length 85 weeks) was 1.1 mg/kg/day. The TD50 (hamster, strain Syrian Golden, males, by gavage, site: spleen, lesion: hemangiosarcoma, dosed 30 weeks, study length 85 weeks) was 0.865 mg/kg/day, the TD50 (rat, strain Fischer 344, females, by gavage, site: lung, lesion: one or several types, types not named, dosed 30 weeks, study length 104 weeks) was 0.873 mg/kg/day and the TD50 (rat, strain Fischer 344, females, by gavage, site: mammary tissue, wider than the gland, lesion: carcinoma, dosed 30 weeks, study length 104 weeks) was 0.192 mg/kg/day. It also gave a TD50 (rat, strain Fischer 344, females, by gavage, site: nervous system, lesion: one or several types, types not named, dosed 30 weeks, study length 104 weeks) of 1.66 mg/kg/day, a TD50 (rat, strain Fischer 344, females, by gavage, site: uterus, lesion: one or several types, types not named, dosed 30 weeks, study length 104 weeks) of 1.84 mg/kg/day and a TD50 (rat, strain Fischer 344, females, in drinking water, site: colon, lesion: one or several types, types not named, dosed 30 weeks, study length 104 weeks) of 1.13 mg/kg/day. For the same compound, the TD50 (rat, strain Fischer 344, females, in drinking water, site: liver, lesion: one or several types, types not named, dosed 30 weeks, study length 104 weeks) was 5.53 mg/kg/day, the TD50 (rat, strain Fischer 344, females, in drinking water, site: lung, lesion: one or several types, types not named, dosed 30 weeks, study length 104 weeks) was 0.885 mg/kg/day and the TD50 (rat, strain Fischer 344, females, in drinking water, site: mammary tissue, wider than the gland, lesion: carcinoma, dosed 30 weeks, study length 104 weeks) was 0.748 mg/kg/day. For the same compound, the TD50 (rat, strain Fischer 344, females, in drinking water, site: nervous system, lesion: one or several types, types not named, dosed 30 weeks, study length 104 weeks) was 0.605 mg/kg/day, the TD50 (rat, strain Fischer 344, females, in drinking water, site: skin, lesion: one or several types, types not named, dosed 30 weeks, study length 104 weeks) was 1.79 mg/kg/day and the TD50 (rat, strain Fischer 344, females, in drinking water, site: thyroid gland, lesion: follicular-cell tumor, dosed 30 weeks, study length 104 weeks) was 0.804 mg/kg/day. It also gave a TD50 (rat, strain Fischer 344, females, in drinking water, site: uterus, lesion: one or several types, types not named, dosed 30 weeks, study length 104 weeks) of 1.49 mg/kg/day, a TD50 (rat, strain Fischer 344, males, by gavage, site: Zymbal's gland, lesion: one or several types, types not named, dosed 30 weeks, study length 104 weeks) of 0.499 mg/kg/day and a TD50 (rat, strain Fischer 344, males, by gavage, site: colon, lesion: one or several types, types not named, dosed 30 weeks, study length 104 weeks) of 0.562 mg/kg/day. For the same compound, the TD50 (rat, strain Fischer 344, males, by gavage, site: forestomach, lesion: one or several types, types not named, dosed 30 weeks, study length 104 weeks) was 0.861 mg/kg/day, the TD50 (rat, strain Fischer 344, males, by gavage, site: liver, lesion: one or several types, types not named, dosed 30 weeks, study length 104 weeks) was 3.39 mg/kg/day and the carcinogen call (rat, strain Fischer 344, males, by gavage, site: lung, lesion: one or several types, types not named, dosed 30 weeks, study length 104 weeks) was “positive”. The TD50 (rat, strain Fischer 344, males, by gavage, site: nervous system, lesion: one or several types, types not named, dosed 30 weeks, study length 104 weeks) was 1.37 mg/kg/day, the TD50 (rat, strain Fischer 344, males, by gavage, site: thyroid gland, lesion: follicular-cell tumor, dosed 30 weeks, study length 104 weeks) was 0.767 mg/kg/day and the TD50 (rat, strain Fischer 344, males, by gavage, site: tunica vaginalis, lesion: mesothelioma, dosed 30 weeks, study length 104 weeks) was 0.225 mg/kg/day. It also gave a TD50 (rat, strain Fischer 344, males, in drinking water, site: Zymbal's gland, lesion: one or several types, types not named, dosed 30 weeks, study length 104 weeks) of 1.13 mg/kg/day, a TD50 (rat, strain Fischer 344, males, in drinking water, site: colon, lesion: one or several types, types not named, dosed 30 weeks, study length 104 weeks) of 0.524 mg/kg/day and a TD50 (rat, strain Fischer 344, males, in drinking water, site: lung, lesion: one or several types, types not named, dosed 30 weeks, study length 104 weeks) of 0.231 mg/kg/day. It also gave a TD50 (rat, strain Fischer 344, males, in drinking water, site: nervous system, lesion: one or several types, types not named, dosed 30 weeks, study length 104 weeks) of 0.127 mg/kg/day, a TD50 (rat, strain Fischer 344, males, in drinking water, site: skin, lesion: one or several types, types not named, dosed 30 weeks, study length 104 weeks) of 0.982 mg/kg/day and a TD50 (rat, strain Fischer 344, males, in drinking water, site: tunica vaginalis, lesion: mesothelioma, dosed 30 weeks, study length 104 weeks) of 0.264 mg/kg/day.
For `NCCCC(N)(C(=O)O)C(F)F` (stereo not drawn), the carcinogen call (rat, strain Wistar, males, in feed, site: stomach, glandular, lesion: one or several types, types not named, dosed 70 weeks, study length 70 weeks) was “negative (inactive)”.
`O=C(Nc1nc(-c2ccc([N+](=O)[O-])o2)cs1)C(F)(F)F` was tested, and the TD50 (mouse, strain Swiss, females, in feed, site: any site (literature study), lesion: several types, types named in the paper, dosed 46 weeks, study length 55 weeks) was 8.01 mg/kg/day, the TD50 (mouse, strain Swiss, females, in feed, site: forestomach, lesion: several types, types named in the paper, dosed 46 weeks, study length 55 weeks) was 9.98 mg/kg/day and the TD50 (mouse, strain Swiss, females, in feed, site: forestomach, lesion: squamous-cell carcinoma, dosed 46 weeks, study length 55 weeks) was 38.6 mg/kg/day. For the same compound, the TD50 (mouse, strain Swiss, females, in feed, site: forestomach, lesion: squamous-cell papilloma, dosed 46 weeks, study length 55 weeks) was 43.5 mg/kg/day, the TD50 (rat, strain Sprague-Dawley, females, in feed, site: any site (literature study), lesion: several types, types named in the paper, dosed 46 weeks, study length 66 weeks) was 5.58 mg/kg/day and the TD50 (rat, strain Sprague-Dawley, females, in feed, site: mammary gland, lesion: adenocarcinoma, dosed 46 weeks, study length 66 weeks) was 7.27 mg/kg/day. It also gave a TD50 (rat, strain Sprague-Dawley, females, in feed, site: mammary gland, lesion: several types, types named in the paper, dosed 46 weeks, study length 66 weeks) of 6.79 mg/kg/day.
`Oc1cccc(O)c1` was tested, and the TD50 (mouse, strain B6C3F1, females, by gavage, site: any site (literature study), lesion: several types, types named in the paper, dosed 104 weeks, study length 104 weeks) was 1880 mg/kg/day (inactive), the TD50 (mouse, strain B6C3F1, females, by gavage, site: liver, lesion: hepatocellular adenoma + hepatocellular carcinoma + neoplastic nodule, dosed 104 weeks, study length 104 weeks) was 1560 mg/kg/day and the TD50 (mouse, strain B6C3F1, females, by gavage, site: lung, lesion: alveolar/bronchiolar adenoma + alveolar/bronchiolar carcinoma, dosed 104 weeks, study length 104 weeks) was 1350 mg/kg/day. The carcinogen call (mouse, strain B6C3F1, males, by gavage, site: any site (literature study), lesion: several types, types named in the paper, dosed 104 weeks, study length 104 weeks) was “negative (inactive)”, the TD50 (mouse, strain B6C3F1, males, by gavage, site: lung, lesion: alveolar/bronchiolar adenoma + alveolar/bronchiolar carcinoma, dosed 104 weeks, study length 104 weeks) was 6800 mg/kg/day and the TD50 (rat, strain Fischer 344, females, by gavage, site: any site (literature study), lesion: several types, types named in the paper, dosed 103 weeks, study length 104 weeks) was 219 mg/kg/day (inactive). For the same compound, the TD50 (rat, strain Fischer 344, males, by gavage, site: any site (literature study), lesion: several types, types named in the paper, dosed 103 weeks, study length 104 weeks) was 213 mg/kg/day and the TD50 (rat, strain Fischer 344, males, by gavage, site: testis, lesion: interstitial-cell adenoma, dosed 103 weeks, study length 104 weeks) was 84 mg/kg/day (inactive).
In the case of `Clc1nc(Cl)nc(Nc2ccccc2Cl)n1`, the TD50 (mouse, strain B6C3F1, females, in feed, site: any site (literature study), lesion: several types, types named in the paper, dosed 103 weeks, study length 107 weeks) is reported as 99.2 mg/kg/day (inactive), the TD50 (mouse, strain B6C3F1, females, in feed, site: liver, lesion: hepatocellular adenoma + hepatocellular carcinoma + neoplastic nodule, dosed 103 weeks, study length 107 weeks) is reported as 2550 mg/kg/day and the TD50 (mouse, strain B6C3F1, females, in feed, site: lung, lesion: alveolar/bronchiolar adenoma + alveolar/bronchiolar carcinoma, dosed 103 weeks, study length 107 weeks) is reported as 1690 mg/kg/day. The carcinogen call (mouse, strain B6C3F1, males, in feed, site: any site (literature study), lesion: several types, types named in the paper, dosed 103 weeks, study length 107 weeks) was “negative (inactive)”, the carcinogen call (rat, strain Fischer 344, females, in feed, site: any site (literature study), lesion: several types, types named in the paper, dosed 103 weeks, study length 104 weeks) was “negative (inactive)” and the TD50 (rat, strain Fischer 344, females, in feed, site: liver, lesion: hepatocellular adenoma + hepatocellular carcinoma + neoplastic nodule, dosed 103 weeks, study length 104 weeks) was 1050 mg/kg/day. The TD50 (rat, strain Fischer 344, males, in feed, site: any site (literature study), lesion: several types, types named in the paper, dosed 103 weeks, study length 104 weeks) was 246 mg/kg/day (inactive).
`CCN=[N+]([O-])CC` was tested, and the TD50 (rat, strain Fischer 344, males, in drinking water, site: esophagus, lesion: several types, types named in the paper, dosed 30 weeks, study length 55 weeks) was 0.0302 mg/kg/day, the TD50 (rat, strain Fischer 344, males, in drinking water, site: liver, lesion: hemangiosarcoma, dosed 30 weeks, study length 55 weeks) was 0.0347 mg/kg/day and the TD50 (rat, strain Fischer 344, males, in drinking water, site: liver, lesion: hepatocellular carcinoma, dosed 30 weeks, study length 55 weeks) was 0.0347 mg/kg/day. For the same compound, the TD50 (rat, strain Fischer 344, males, in drinking water, site: liver, lesion: neurosarcoma, dosed 30 weeks, study length 55 weeks) was 0.0971 mg/kg/day, the carcinogen call (rat, strain Fischer 344, males, in drinking water, site: liver, lesion: several types, types named in the paper, dosed 30 weeks, study length 55 weeks) was “positive” and the TD50 (rat, strain Fischer 344, males, in drinking water, site: nasal cavity, lesion: several types, types named in the paper, dosed 30 weeks, study length 55 weeks) was 0.022 mg/kg/day.
In the case of `NC(=O)CCCCC(N)=O`, the carcinogen call (mouse, strain C57BL/6, females, in feed, site: liver, lesion: hepatocellular carcinoma, dosed 52 weeks, study length 69 weeks) is reported as “negative (inactive)”, the TD50 (mouse, strain C57BL/6, females, in feed, site: lung, lesion: alveolar/bronchiolar adenoma, dosed 52 weeks, study length 69 weeks) is reported as 8550 mg/kg/day (inactive) and the carcinogen call (mouse, strain C57BL/6, males, in feed, site: liver, lesion: hepatocellular carcinoma, dosed 52 weeks, study length 69 weeks) is reported as “negative (inactive)”. The carcinogen call (mouse, strain C57BL/6, males, in feed, site: lung, lesion: alveolar/bronchiolar adenoma, dosed 52 weeks, study length 69 weeks) was “negative (inactive)”, the carcinogen call (rat, strain Fischer 344, females, in feed, site: liver, lesion: one or several types, types not named, dosed 52 weeks, study length 69 weeks) was “negative (inactive)” and the TD50 (rat, strain Fischer 344, males, in feed, site: liver, lesion: hepatocellular carcinoma, dosed 52 weeks, study length 69 weeks) was 6420 mg/kg/day.
